Literature values in patent US6627153B1, “Integrated assay for organ function, drugs and/or one or more metabolites” (priority 1999, dated 2003).

Details: following oral administration; within the first 24 hours

- absorbed drug eliminated via the renal route: 90%
Structure (SMILES): CN(C)C(=N)N=C(N)N [Metformin]
